Assay results as given in US20120157494A1, “ISOINDOLYL COMPOUNDS” (priority 2010, published 2012).

Experiments:
[1] = molecular target: T1, hP2X7 (Homo sapiens, UniProt Q99572); assay: Intracellular Calcium Flux (FLIPR) Assay; type: cell-based; settings: 1321N1 cells stably expressing human P2X7; agonist 100 μM BzATP; 20 min equilibration with antagonist; read-out: FLIPR pIC50 hP2X7-1321n1 (converted)
T1 construct: 1321N1 cells stably expressing the full length human P2X7 gene (1321N1-hP2X7); expressed in transfected cells
T1 sequence (Q99572 1-595): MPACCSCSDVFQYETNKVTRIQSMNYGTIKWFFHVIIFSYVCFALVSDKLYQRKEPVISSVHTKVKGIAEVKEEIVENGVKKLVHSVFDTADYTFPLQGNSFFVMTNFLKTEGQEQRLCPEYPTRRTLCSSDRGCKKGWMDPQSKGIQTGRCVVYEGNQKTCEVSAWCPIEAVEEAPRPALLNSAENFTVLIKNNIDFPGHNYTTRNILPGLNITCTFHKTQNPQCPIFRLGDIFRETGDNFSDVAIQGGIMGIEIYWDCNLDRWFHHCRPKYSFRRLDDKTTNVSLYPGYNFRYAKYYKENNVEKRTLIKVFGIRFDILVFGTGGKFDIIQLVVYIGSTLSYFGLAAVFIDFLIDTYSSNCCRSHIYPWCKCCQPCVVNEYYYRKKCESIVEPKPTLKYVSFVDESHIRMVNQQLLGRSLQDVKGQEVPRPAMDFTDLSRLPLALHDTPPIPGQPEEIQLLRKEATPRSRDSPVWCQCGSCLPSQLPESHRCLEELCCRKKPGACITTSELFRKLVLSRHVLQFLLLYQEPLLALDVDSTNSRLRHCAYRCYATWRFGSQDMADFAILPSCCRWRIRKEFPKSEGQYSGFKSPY
Experimental: Stock solutions of compounds were prepared from powders as a 10 mM DMSO stock solution. These solutions were stored at RT during the two week period of these experiments to prevent freeze-thaw of the DMSO stocks. The DMSO stocks were added to the appropriate assay buffer at a concentration of 10 μM, and then diluted serially to the final concentrations that were tested. No observable precipitate was formed at any time during this process. The aqueous solutions of compounds as well as ATP (Sigma A7699) and BzATP (Sigma B6396) were prepared fresh for each day of experiment.
1321N1 cells stably expressing the full length human P2X7 gene (1321N1-hP2X7) and HEK293 cells stably expressing the full length rat P2X7 gene (HEK293-rP2X7) were obtained from the Roche Cell Culture Facility. 1321N1-hP2X7 cells were grown in Dulbecco's Modified Eagle's Medium (DMEM) high glucose supplemented with 10% FBS and 250 μg/mL G418. HEK293-rP2X7 cells were grown in DMEM/F-12 supplemented with 10% FBS, 1 mM CaCl2, 2 mM MgCl2, 2 mM L-Glutamine and 500 μg/ml G418. Cells were split such that they never became >70% confluent.
On the day prior to the experiment, 1321N1-hP2X7 or HEK293-rP2X7 cells were released into suspension with calcium-free PBS+Versene and washed by centrifugation with calcium-free PBS to remove the Versene. Cells were resuspended in growth medium at a density of 2.5×10^5 cells/mL and seeded into black walled, clear bottom 96 well plates (50,000 cells/well) approximately 18 hr prior to intracellular calcium flux experiments.
On the day of the experiment, plates were washed with FLIPR buffer (calcium- and magnesium-free Hank's Balanced Salt Solution (HBSS) supplemented with 10 mM Hepes, 2.5 mM probenecid and 2 mM calcium chloride) using a BIO-TEK 96 channel plate washer and incubated with […] fluo-3 dye at 37° C. for one hr. The dye was then removed by plate washing and the cells were allowed to equilibrate for 20 min at room temperature with antagonist or vehicle (FLIPR buffer). Agonist (100 μM BzATP final concentration for hP2X7; 5 μM BzATP final concentration or rP2X7) was added online with the FLIPR and fluorescence measurements made at 1 sec intervals for 60 sec followed by 3 sec intervals for a further 4 min (5 min total). A final addition of 5 μM ionomycin was made and the maximal BzATP-evoked fluorescence normalized to the maximal ionomycin-evoked fluorescence.

IC50 [1]: 0.389 µM | melting point: 131 to 132 °C
SMILES: COC[C@@H](C)N1Cc2c(ccc(Cl)c2NC(=O)Cc2ccc(F)c(C(F)(F)F)c2)C1=O [Compound I-21, N-[5-Chloro-2-((R)-2-methoxy-1-methyl-ethyl)-1-oxo-2,3-dihydro-1H-isoindol-4-yl]-2-(4-fluoro-3-trifluoromethyl-phenyl)-acetamide]
